Laboratory results as given in patent US20110092488A1, “Quninoline Methanol Compounds for the Treatment and Prevention of Parasitic Infections” (priority 2005, published 2011).
In brackets after ≈: the same amount, converted by molar mass. Entries after “also recorded” stand apart in the source; their conditions may differ. Where two headings read alike, the source gives them in different places.

Key:
[1] = rats; cited from earlier work
[2] = humans; cited from earlier work
[3] = target: human multiple drug resistance transporter (MDR1), P-glycoprotein (Homo sapiens, UniProt P08183); details: not told; cited from earlier work
P. falciparum W2 = assay: In vitro antimalarial activity against P. falciparum W2; type: cell-based, Plasmodium falciparum
Procedure: (§1) The in vitro activities of AAQMs against P. falciparum strains W2, D6, TM91C235 and TM90C2A were evaluated using the method of Desjardins et al. as modified by Milhous et al. W2 is chloroquine resistant and mefloquine sensitive, D6 is chloroquine sensitive but naturally less susceptible to mefloquine, TM91C235 is resistant to mefloquine, chloroquine and pyrimethamine as is TM90C2A, however this latter parasite is a two pfmdr1 copy strain. We routinely run mefloquine in this screen as a control to ensure assay validity.

[4] = system: primary rat forebrain neurons; assay: Neurocytotoxicity assay (MTT)
Procedure: The neurocytotoxicity assay of AAQMs was conducted as per Dow et al.; The antimalarial potential of 4-quinolinecarbinolamines may be limited due to neurotoxicity and cross-resistance in mefloquine-resistant Plasmodium falciparum strains; Chemother. (48) 2624-2632 (2004) and is incorporated herein, by reference. This assay utilizes primary rat forebrain neurons and is a multi-endpoint screen. […] The AAQMs outlined in Table 1 were screened at 10, 100 and 1000 μM in triplicate, and the reduction in viability observed was determined using the 3-(4,5-dimethylthiazol-2-yl)-2,5-diphenyltetrazolium bromide (MTT) assay as per Dow et al., discussed above. Approximate IC50 values were calculated on the basis of the level of inhibition observed at each concentration. Full dose response assays were run for mefloquine and WR069878 with two fold dilutions (n=6 wells per dilution) and 11 dilutions for each drug. IC50s were calculated using Prism. Each time the assay is conducted, 20 μM mefloquine is included, as a control. […] Assays are re-run if the loss of viability induced by mefloquine is <40% or >60%. Neuroprotection experiments with 6,7-dinitroquinoxaline-2,3-dione (DNQX) and magnesium were performed as per Dow et al.; Transcriptional profiling of mefloquine-induced disruption of calcium homeostasis in neurons in vitro; Genomics (86)539-550 (2005), which is incorporated by reference, herein. Neurons were exposed to DNQX (100 μM) or magnesium (12 mM) for 5 min, followed by mefloquine (25 μM) or WR069878 (250 μM) for 20 min after which reduction in cell viability was determined. […] DNQX is an inhibitor of non-N-methyl-D-aspartate (NMDA) receptors, whilst magnesium inhibits the functioning of the inositol 1,4,5-trisphosphate (IP3)-mediated calcium signaling pathway at several points. The effects of mefloquine and WR069878 on neuronal calcium homeostasis were assessed utilizing confocal microscopy as per Dow et al, as discussed in Antimicrob Agents Chemother. (48)2624-2632 (2004), cited above, and incorporated by reference, herein. Briefly neurons were loaded with calcium sensitive dye Fluo 3-A for 1 h and were washed prior to image experiments. Neurons were ‘spiked’ with 100 μM mefloquine or WR069878. Subsequent changes in neuronal calcium homeostasis were recorded as fluctuations in the emitted fluorescence of fluo-3-complexed calcium at 530 nm (excitation was 488 nm). Sequential image scans of fields containing 5-25 neurons were used to construct temporal profiles. Scans were made at 10 s intervals. Fluorescence levels for each neuron were normalized 12 to time zero values. Data were then pooled from three and five independent experiments for mefloquine and WR069878 respectively.

P. falciparum D6 [5] = assay: In vitro antimalarial activity against P. falciparum D6; type: cell-based, Plasmodium falciparum
Procedure: as §1
(§2) The combined effects of azithromycin (as represented by compound 196 on the horizontal axes of FIG. 4 through 6) and WR074086 (as represented by compound 14885 on vertical axes of FIGS. 4 through 6) against three strains of P. falciparum were investigated using isobologram analysis. First, the IC50s of each compound were determined as described above.

[6] = single mefloquine treatment dose; cited from earlier work
P. falciparum TM90C2A = assay: In vitro antimalarial activity against P. falciparum TM90C2A; type: cell-based, Plasmodium falciparum
Procedure: as §1

[7] = Phototoxicity in mice (historical experiments); details: WR030090: 25 or 50 mg/kg orally, WRAIR archival data
[8] = system: primary rat forebrain neurons; assay: Neuroprotection experiments with DNQX and magnesium; details: DNQX 100 μM or magnesium 12 mM; mefloquine 25 μM, WR069878 250 μM; FIG. 2(c)
Procedure: (§3) The neurocytotoxicity assay of AAQMs was conducted as per Dow et al.; The antimalarial potential of 4-quinolinecarbinolamines may be limited due to neurotoxicity and cross-resistance in mefloquine-resistant Plasmodium falciparum strains; Chemother. (48) 2624-2632 (2004) and is incorporated herein, by reference. This assay utilizes primary rat forebrain neurons and is a multi-endpoint screen. […] The AAQMs outlined in Table 1 were screened at 10, 100 and 1000 μM in triplicate, and the reduction in viability observed was determined using the 3-(4,5-dimethylthiazol-2-yl)-2,5-diphenyltetrazolium bromide (MTT) assay as per Dow et al., discussed above. Approximate IC50 values were calculated on the basis of the level of inhibition observed at each concentration. […] IC50s were calculated using Prism. […] Neurons were exposed to DNQX (100 μM) or magnesium (12 mM) for 5 min, followed by mefloquine (25 μM) or WR069878 (250 μM) for 20 min after which reduction in cell viability was determined. […] The effects of mefloquine and WR069878 on neuronal calcium homeostasis were assessed utilizing confocal microscopy as per Dow et al, as discussed in Antimicrob Agents Chemother. […] Subsequent changes in neuronal calcium homeostasis were recorded as fluctuations in the emitted fluorescence of fluo-3-complexed calcium at 530 nm (excitation was 488 nm). […]

[9] = Procedure: The AAQMs indicated in Table 1 (10 μM) were added to a mixture containing an NADPH-regenerating buffer (1.25 mM β-NADP+, 3.3 mM glucose-6-phosphate, and 3.3 mM MgCl2) and 0.5 mg/ml pooled human liver microsomes to a final volume of 125 μl. The mixtures were incubated for 5 minutes at 37° C. and the reactions were initiated by adding 25 μl glucose-6-phosphate dehydrogenase to a final concentration of 1 unit/ml. The reactions were maintained at 37° C. until they were terminated by the addition of an equal volume of 100% ice cold acetonitrile at 0, 10, 30, 60, and 120 minutes. Samples were centrifuged to pellet the proteins and the supernatant was analyzed by LC-MS/MS in duplicate using fast LC gradient or isocratic methods. AAQM concentrations were quantified with external calibration, using plots of response v. amount. Chromatograms were analyzed using the mass spectrometry software Xcalibur® QuanBrowser (for ThermoFinnigan® instruments) or MassLynx® (for Waters® instruments). Concentrations of AAQMs remaining at each time point were calculated using the unknown peak areas and corresponding calibration curves. In order to calculate the half-life, a first-order rate of decay was assumed. […] All reagents were purchased from Sigma except for the microsomes, which were obtained from BD Gentest®. For metabolite identification, samples were prepared as described above with human liver microsomes. Additional samples were prepared with for each AAQM using mouse, rat, and rhesus monkey liver microsomes. Samples were separated using an LC gradient method and analyzed by full scan LC-MS and LC-MS/MS. […] These MS/MS data were also used to do preliminary structural elucidation. […] The relative percentage of formation of each metabolite was determined in a semi-quantitative manner since standards of each metabolite were not available. Peak areas of each detected AAQM metabolite and the internal standard were determined, and their ratios were calculated as metabolite area/internal standard area. The percent formation of each metabolite was determined as the area ratio divided by the sum of all the metabolite area ratios.
[10] = system: neuronal calcium homeostasis; assay: Neuronal calcium homeostasis, confocal microscopy (Fluo-3); details: 100 μM, FIG. 2(b)
Procedure: as §3

P. falciparum TM91C235 = assay: In vitro antimalarial activity against P. falciparum TM91C235; type: cell-based, Plasmodium falciparum
Procedure: as §1

[11] = Aotus, 10 mg/kg/day oral x7
Procedure: (§4) The P. berghei-mouse efficacy data were obtained from the WRAIR chemical information system (subcutaneous testing) or from recent tests conducted at AFRIMS, Thailand or at the University of Miami using a modified version of the Thompson test. Groups of five mice were inoculated through i.p. injection on day 0 (usually with 1×106 P. berghei-parasitized erythrocytes). The drugs in Table 1 were administered either subcutaneously or orally for three days (usually on days 3-5) at doses of 1.25-160 mg/kg in two to four fold increments. Cure was defined as survival until day 60 (subcutaneous dosing) or day 31 post-treatment (oral dosing). […] The minimum effective dose was the lowest dose level that cured at least one of five mice. The Aotus studies were performed according to Obaldia; Detection of Klebsiella pnuumoniae antibodies in Aotus l. lemurinus (Panamanian owl monkey) using an enzyme linked immunosorbent assay (ELIA) test; Lab Anim (25)133-141 (1991) and Obaldia et al., WR 238605, chloroquine, and their combinations as blood schizonticides against a chloroquine-resistant strain of Plasmodium vivax in Aotus monkeys; Am. J. Trop. Med. Hyg. (56)508-510 (1997), which are incorporated by reference, herein. Groups of two Aotus lemurinus 6 lemurinus of the karyotype VIII or IX (27) male and female monkeys with weights ranging from 742-970 g were inoculated with 5×10^6 parasites of either the FVO strain of P. falciparum or the AMRU1 strain of P. vivax. Both of these strains are chloroquine resistant. […] Monkeys were examined and thick Giemsa-stained blood smears were prepared and enumerated daily (17) to monitor the course of infection. […] In some instances, a high dose of the test drug was used to retreat monkeys instead of the mefloquine rescue. Monkeys are considered cured if they are parasite free 90 days post treatment. […] Plasma samples were taken from the monkeys in some studies for quantification of metabolites. Additional blood samples were taken as appropriate for complete blood counts and serum chemistry. Research was conducted in compliance with the Animal Welfare Act and other federal statutes and regulations relating to animals and experiments involving animals and adheres to principles stated in the Guide for the Care and Use of Laboratory Animals, NRC Publication, 1996 edition (34).

P. falciparum D6 [12] = assay: Isobologram analysis azithromycin and WR074086, P. falciparum D6; type: cell-based, Plasmodium falciparum
Procedure: as §2
(§5) Next, IC50s were determined with different fractional starting concentrations of each compound. For example in line C of FIG. 5, the starting concentration of azithromycin was 12500 ng/ml whereas the starting concentration of WR074086 was 5 ng/ml. Each of these starting concentrations is half of that used when each compound was tested alone. […] In the data tables, lines D-H represent other combinations of starting concentrations of each compound.
(§6) For each pair of starting concentrations for each drug, fractional inhibitory concentrations were determined using the following formula: FIC=IC50 in combination/IC50 alone.
(§7) The FICs for the eight tests are plotted as indicated in FIG. 4 through FIG. 6 for each of three P. falciparum strains. Graphs of this type are called isobolograms and additivity is represented by an overall FIC SUM of 1, as represented by the straight line joining the two axes. A potentiative effect is represented by a concave curve below the straight line, since IC50s in combination are lower than expected. Antagonism is represented by a convex curve above the straight line, since IC50s in combination are higher than expected.

[13] = system: P. falciparum D6, W2 and TM91C235; assay: Isobologram analysis azithromycin and WR074086, P. falciparum D6, W2 and TM91C235; type: cell-based, Plasmodium falciparum; details: WR074086 combined with azithromycin; in many instances; FIGS. 4-6
Procedure: as §2, §5, §6
as §7, with “Antagonism is represented by a convex curve above the straight line, since IC50s in combination are higher than expected.” left out

[14] = system: FVO strain of P. falciparum; assay: Efficacy in P. falciparum-challenged Aotus monkeys; type: in vivo, Plasmodium falciparum in Aotus lemurinus lemurinus; details: 10 mg/kg/day x7 oral; groups of two; Cure = parasite free 90 days; R = average day of recrudescence; Failure = rescued with mefloquine
Procedure: as §4

[15] = system: Plasmodium falciparum malaria; details: P. falciparum malaria, South East Asia; WR030090: field trials; cited from earlier work

## OC(c1cc(C(F)(F)F)nc2c(C(F)(F)F)cccc12)C1CCCCN1 (stereo not shown) [Mefloquine, reference compound]
[1]
  Maximum concentration in CNS: 113 µM
[2]
  Maximum concentration in CNS: 52 µM
[3]
  PgP interaction: PgP substrate and inhibitor
P. falciparum W2
  IC90 against W2: 0.0039 µg/mL (≈ 0.0103 µM)
[4]; read-out: Median IC50 against rat neurons, Table 4
  IC50: 20 µM
[4]; read-out: Neurotoxicity IC50, full dose response, FIG. 2(a)
  IC50: 27 µM
[4]; read-out: Neurotoxicity ranking (IC50 in μM), approximate IC50 from screen at 10, 100 and 1000 μM, MTT
  IC50: 20 µM
P. falciparum D6 [5]
  IC90 against D6: 0.02 µg/mL (≈ 0.0529 µM)
[6]
  Peak plasma concentrations: 800 to 8000 ng/mL
P. falciparum TM90C2A
  IC90 against TM90C2A: 0.101 µg/mL (≈ 0.267 µM)
[7]
  Phototoxicity in mice: Not phototoxic at tolerated doses
[8]
  Neurotoxicity blocked by DNQX and supra-physiological magnesium: is blocked
[9]
  Half-life, human liver microsomes: > 2 h
[10]
  Effect on intracellular calcium (Fluo-3 fluorescence): increases intracellular calcium concentrations
P. falciparum TM91C235
  Activity against P. falciparum TM91C235 (IC50 in ng/ml): 15 ng/mL
P. falciparum TM91C235; Table 4, read-out: Median IC50 against P. falciparum TM91C235
  IC50: 0.035 µM
P. falciparum TM91C235; control, last 15 assays
  Mean IC50 +/- SD against P. falciparum TM91C235: 0.0157 ± 0.0027 µg/mL
P. falciparum TM91C235; text b26
  IC90 against TM91C235: 0.089 µg/mL (≈ 0.235 µM)

## CCCCN(CCCC)CC(O)c1cc(-c2ccc(F)cc2)nc2c(Cl)cc(Cl)cc12 (stereo not shown) [WR074086]
[11]
  Mean peak concentration: 129 ng/mL
[11]; day 1, 2 h
  Plasma conc on day 1 (ng/ml) 2 h: 179 ng/mL
[11]; day 1, 24 h
  Plasma conc on day 1 (ng/ml) 24 h: 4.0 ng/mL
[11]; day 7, 2 h
  Plasma conc. on day 7 (ng/ml) 2 h: 78 ng/mL
[11]; day 7, 24 h
  Plasma conc. on day 7 (ng/ml) 24 h: 78 ng/mL
P. falciparum D6 [12]; Line C FIG. 5: starting azithromycin 12500 ng/ml, WR074086 5 ng/ml
  FIC (IC50 in combination/IC50 alone): 0.399
P. falciparum D6 [12]; azithromycin + WR074086, Line C FIG. 5
  FIC sum: 0.648
P. falciparum D6 [5]; FIG. 5
  IC50 against P. falciparum D6, compound alone: 0.0018086 µg/mL (≈ 0.0039 µM)
[13]
  Minimum fractional inhibitory concentration (FIC): < 0.5
[14]
  Outcome in Aotus: cleared parasitemias, but recrudescence was subsequently observed; also recorded: Clear (R25)
P. falciparum TM91C235
  Activity against P. falciparum TM91C235 (IC50 in ng/ml): 3.4 ng/mL
P. falciparum TM91C235; Table 2
  TM91C235 IC90: 0.007 µg/mL

## CCN(CC)CCCC(C)Nc1ccnc2cc(Cl)ccc12 (stereo not shown) [chloroquine]
[15]
  Cure rate: 11-20%
